For assay [1], the target named is EGFR (human), P00533 [WT].
Assay [2] addresses EGFR (human), P00533 [Inhibition of EGFR(L858RT/790M) Kinase Activity].
The next assay concerns the target EGFR (human) (UniProt P00533). Conditions: hcc827.

A value given as a limit tells only on which side of the number the result lay.

Sequence of EGFR (human), P00533 [WT] (P00533 whole entry, looked up): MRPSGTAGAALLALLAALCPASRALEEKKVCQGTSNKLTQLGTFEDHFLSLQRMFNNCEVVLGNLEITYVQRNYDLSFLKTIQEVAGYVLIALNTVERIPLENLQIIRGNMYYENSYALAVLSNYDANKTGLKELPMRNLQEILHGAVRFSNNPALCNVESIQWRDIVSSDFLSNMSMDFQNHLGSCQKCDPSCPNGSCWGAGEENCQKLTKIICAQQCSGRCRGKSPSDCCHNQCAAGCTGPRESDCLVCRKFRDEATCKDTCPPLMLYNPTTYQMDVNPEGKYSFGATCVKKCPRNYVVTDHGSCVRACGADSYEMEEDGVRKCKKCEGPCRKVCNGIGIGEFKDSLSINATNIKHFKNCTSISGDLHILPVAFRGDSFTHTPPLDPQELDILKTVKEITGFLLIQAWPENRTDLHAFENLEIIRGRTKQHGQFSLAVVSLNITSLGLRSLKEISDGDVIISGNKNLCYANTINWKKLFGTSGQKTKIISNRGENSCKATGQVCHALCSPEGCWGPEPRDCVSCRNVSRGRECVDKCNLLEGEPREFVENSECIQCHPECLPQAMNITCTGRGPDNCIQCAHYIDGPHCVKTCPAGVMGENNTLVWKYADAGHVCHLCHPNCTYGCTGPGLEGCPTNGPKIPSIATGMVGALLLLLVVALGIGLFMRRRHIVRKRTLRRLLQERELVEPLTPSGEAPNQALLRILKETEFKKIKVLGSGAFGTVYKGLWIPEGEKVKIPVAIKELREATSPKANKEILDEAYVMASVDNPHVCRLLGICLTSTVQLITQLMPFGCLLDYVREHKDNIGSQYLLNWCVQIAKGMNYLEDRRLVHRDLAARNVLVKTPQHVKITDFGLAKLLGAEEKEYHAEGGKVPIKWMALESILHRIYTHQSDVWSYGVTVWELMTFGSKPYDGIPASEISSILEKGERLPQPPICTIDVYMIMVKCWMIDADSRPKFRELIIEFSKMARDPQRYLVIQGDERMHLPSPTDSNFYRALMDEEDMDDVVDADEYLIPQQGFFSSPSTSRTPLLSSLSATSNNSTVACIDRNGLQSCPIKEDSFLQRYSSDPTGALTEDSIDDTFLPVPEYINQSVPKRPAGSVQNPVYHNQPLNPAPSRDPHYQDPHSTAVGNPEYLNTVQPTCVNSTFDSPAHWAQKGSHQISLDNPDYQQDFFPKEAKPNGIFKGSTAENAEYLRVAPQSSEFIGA
Sequence of EGFR (human) (P00533 whole entry, looked up): as above
Sequence of EGFR (human), P00533 [Inhibition of EGFR(L858RT/790M) Kinase Activity] (P00533 whole entry, looked up, change not shown): as the sequence (P00533 whole entry, looked up) above

Take `C=CC(=O)N1CCc2c(sc3ncnc(N[C@H](CC)c4ccccc4)c23)C1`: the IC50 in assay [1] is under 59 nM; in assay [2], 500 to 2500 nM; on EGFR (human), 1 to 99 nM.
The matching figures for `C[C@@H](Nc1ncnc2sc3c(c12)CCN(C(=O)/C=C/CNC1CC1)C3)c1ccccc1`: under 59 nM, 500 to 2500 nM and 1 to 99 nM.
For `C=CC(=O)N1CCc2c(sc3ncnc(N[C@H](COCc4cccc([N+](=O)[O-])c4)c4ccccc4)c23)C1`, in that order: under 59 nM, 10 to 499 nM and 1 to 99 nM.
The matching figures for `C=CC(=O)N1CCc2c(sc3ncnc(N[C@H](CCO)c4ccccc4)c23)C1`: under 59 nM, 10 to 499 nM and 1 to 99 nM.
With `CC#CC(=O)Nc1cccc(-c2c(-c3ccccc3)oc3ncnc(N[C@H](CO)c4ccccc4)c23)c1`, the IC50 was under 59 nM in assay [1], 500 to 2500 nM in assay [2] and 1 to 99 nM at EGFR (human).
The matching figures for `C=CS(=O)(=O)N1CCc2c(sc3ncnc(N[C@H](CO)c4ccccc4)c23)C1`: 60 to 100 nM, 500 to 2500 nM and 100 to 300 nM.
The matching figures for `C=CC(=O)N1CCc2c(sc3ncnc(N[C@H](COC)c4ccccc4)c23)C1`: under 59 nM, 10 to 499 nM and 1 to 99 nM.
The matching figures for `CN(C)C/C=C/C(=O)N1CCc2c(sc3ncnc(N[C@H](COCc4cccc(F)c4)c4ccccc4)c23)C1`: under 59 nM, 10 to 499 nM and 1 to 99 nM.
As for `C=CC(=O)N1CCc2c(sc3ncnc(N[C@H](COCc4cccc(OC)c4)c4ccccc4)c23)C1`, the results for the IC50 (in assay [1]; in assay [2]; on EGFR (human)) were under 59 nM, 10 to 499 nM and 1 to 99 nM, respectively.
The matching figures for `C=CC(=O)N1CCc2c(sc3ncnc(N[C@H](COCc4cccc(F)c4)c4ccccc4)c23)C1`: under 59 nM, 10 to 499 nM and 1 to 99 nM.
As to `CN1CCN(C/C=C/C(=O)N2CCc3c(sc4ncnc(N[C@H](CO)c5ccccc5)c34)C2)CC1`, the IC50 in assay [1] is under 59 nM; in assay [2] it was 500 to 2500 nM; at EGFR (human), 1 to 99 nM.
For `C[C@@H](Nc1ncnc2sc3c(c12)CCN(C(=O)/C=C/CN(CCO)CCO)C3)c1ccccc1`, in that order: under 59 nM, 500 to 2500 nM and 1 to 99 nM.
`C=CC(=O)Nc1cccc(-c2c(-c3ccccc3)oc3ncnc(N[C@H](C)c4ccccc4)c23)c1`: the IC50 in assay [1] is 101 to 900 nM; in assay [2] it was 500 to 2500 nM; at EGFR (human), 1 to 99 nM.
On to `C[C@@H](Nc1ncnc2sc3c(c12)CCN(C(=O)/C=C/CN(C)C)C3)c1ccccc1`, for which the IC50 was under 59 nM in assay [1], 500 to 2500 nM in assay [2] and 1 to 99 nM against EGFR (human).
As for `CN(C)C/C=C/C(=O)N1CCc2c(sc3ncnc(N[C@H](CO)c4ccccc4)c23)C1`, the values for the IC50 (in assay [1]; in assay [2]; against EGFR (human)) were under 59 nM, 10 to 499 nM and 1 to 99 nM, respectively.
The matching figures for `CN(C)C/C=C/C(=O)Nc1cccc(-c2c(-c3ccccc3)oc3ncnc(N[C@H](CO)c4ccccc4)c23)c1`: under 59 nM, 10 to 499 nM and 1 to 99 nM.
For the molecule `CNC/C=C/C(=O)N1CCc2c(sc3ncnc(N[C@H](C)c4ccccc4)c23)C1`, the IC50 in assay [1] is under 59 nM; in assay [2] it was 500 to 2500 nM; on EGFR (human), 1 to 99 nM.
With `CN(C)C/C=C/C(=O)N1CCc2c(sc3ncnc(N[C@H](COCc4ccccn4)c4ccccc4)c23)C1`, the IC50 is under 59 nM in assay [1], 500 to 2500 nM in assay [2] and 1 to 99 nM against EGFR (human).
For `O=C(/C=C/CN1CCOCC1)N1CCc2c(sc3ncnc(N[C@H](CO)c4ccccc4)c23)C1`, in that order: under 59 nM, 500 to 2500 nM and 1 to 99 nM.
Turning to `O=C(/C=C/CN1CCCCC1)N1CCc2c(sc3ncnc(N[C@H](CO)c4ccccc4)c23)C1`, the IC50 in assay [1] is under 59 nM; in assay [2] it was 500 to 2500 nM; on EGFR (human) it was 1 to 99 nM.
The matching figures for `C=CC(=O)N1CCc2c(sc3ncnc(N[C@H](CO)c4ccccc4)c23)C1`: under 59 nM, 10 to 499 nM and 1 to 99 nM.
As to `C=CC(=O)N1CCc2c(sc3ncnc(N[C@H](COCc4cccc(C)c4)c4ccccc4)c23)C1`, the figures for the IC50 (in assay [1]; in assay [2]; against EGFR (human)) were under 59 nM, 10 to 499 nM and 1 to 99 nM, respectively.
Regarding `C=CC(=O)N1CCc2c(sc3ncnc(N[C@H](COCc4ccccc4)c4ccccc4)c23)C1`, the values for the IC50 (in assay [1]; in assay [2]; at EGFR (human)) were under 59 nM, 10 to 499 nM and 1 to 99 nM, respectively.
The matching figures for `C=CC(=O)N1CCc2c(sc3ncnc(N[C@H](C)c4ccccc4)c23)C1`: under 59 nM, 500 to 2500 nM and 1 to 99 nM.
For `CN(C)C/C=C/C(=O)N1CCc2c(sc3ncnc(Nc4ccc(F)c(Cl)c4)c23)C1`, in that order: under 59 nM, 10 to 499 nM and 1 to 99 nM.
For `CCN(CC)C/C=C/C(=O)N1CCc2c(sc3ncnc(N[C@H](C)c4ccccc4)c23)C1`, in that order: under 59 nM, 500 to 2500 nM and 1 to 99 nM.
Regarding `CC[C@@H](Nc1ncnc2sc3c(c12)CCN(C(=O)/C=C/CN(CC)CC)C3)c1ccccc1`, the IC50 in assay [1] was under 59 nM; in assay [2] it was 500 to 2500 nM; against EGFR (human), 1 to 99 nM.

The record behind these values is the Kinase Knowledgebase extract (Sharma et al. 2016).
